Measurements from US4983614A, “Benzhydryloxyethylpiperidine derivatives, process for their preparation and pharmaceutical compositions, in which they are present” (priority 1986, dated 1991).
Where a name gives a salt, the structure may show the parent alone. Read-outs that look alike come from different tables or passages of the source.

How the values were obtained:
[1] = test system: motor activity of mice; assay: Study of the spontaneous motility (motor activity, photoelectric actimeter); type: in vivo, mouse; details: i.p., comparative test, the number is the dose of the effect
Protocol: A--Study of the spontaneous motility
The motor activity of mice was determined with the aid of a Boissier and Simon photoelectric actimeter.
The mice are placed in groups of five in a box closed with a lid, through which two perpendicular light rays pass; the mice cut off these rays when they move.
These movements are measured by a counter, which is read after thirty minutes and one hour.

[2] = test system: exploration behavior of mice; assay: Exploration behavior (automated hole-board); type: in vivo; details: Mus musculus, ip, comparative test
From the text: Thirty minutes after the intraperitoneal administration of the derivatives according to the invention, each mouse is placed on an automated hole-board for five minutes and the number of holes explored is noted every minute.
(§1) A 50% effective dose can be calculated from the results obtained.

[3] = test system: muscle-relaxing action in mice; assay: Muscle-relaxing action (traction test); type: in vivo; details: Mus musculus, ip, comparative test
From the text: D--Muscle-relaxing action (traction test)
This test assesses the presence or absence of redressments in a mouse brought up to a horizontal wire with its front paws.
The number of mice which are unable to grip the wire with one of their back paws within five seconds is noted.
as §1

[4] = test system: sleep induced by pentobarbital; assay: Interaction with pentobarbital; type: in vivo; details: Mus musculus, ip, read-out: Interaction with pentobarbital ED50
From the text: E--Interaction with pentobarbital
as §1

[5] = test system: pain syndrome caused by phenylbenzoquinone (PBQ); assay: Peripheral analgesic activity (phenylbenzoquinone-induced abdominal twisting); type: in vivo; details: Mus musculus, ip
Protocol: F--Peripheral analgesic activity
A peritoneal pain is caused in mice by the intraperitoneal injection of phenylbenzoquinone (PBQ). The test assesses the decrease in the pain syndrome, characterized by an abdominal twisting movement, which is caused by injecting the test product thirty minutes before the administration of PBQ.
The 50% effective dose is calculated from the percentage decrease in the pain syndrome relative to the control animals.

[6] = Determination of the 50% lethal dose (LD50) in mice; details: mouse, in vivo
Protocol: A. Determination of the 50% lethal dose (LD50) in mice
The derivatives studied were administered intraperitoneally and orally to groups made up of five male mice and five female mice, at a rate of 0.1 ml per ten grams of body weight.

[7] = test system: contractions induced by histamine hydrochloride in isolated guinea-pig ileum; assay: Study on an isolated organ (guinea-pig ileum), antagonism of histamine contractions; details: 35° C., Tyrode's solution
Protocol: I--Study on an isolated organ (guinea-pig ileum)
This test assesses antagonism towards the contractions induced by histamine hydrochloride in isolated guinea-pig ileum kept at 35° C. in Tyrode's solution.

[8] = test system: histamine-induced bronchospasm; assay: Bronchospasm by inhalation of a histamine solution; type: in vivo; details: Cavia porcellus, guinea-pig
Protocol: J--Bronchospasm by inhalation of a histamine solution
Guinea-pigs are placed in a closed chamber into which histamine is introduced as an aerosol, and only those which show very distinct signs of asphyxia within four minutes are selected.
The substance to be studied is administered to groups of guinea-pigs thirty minutes before a further period in the chamber in order to check the resistance to histamine. A guinea-pig is considered to be protected if it resists the histamine aerosol for ten minutes without showing signs of asphyxia.
A 50% effective dose is calculated from the results obtained.

[9] = test system: lethal dose of histamine (histaminic shock); assay: Antihistaminic activity (protection from a lethal dose of histamine, histaminic shock); type: in vivo; details: Cavia porcellus, po; guinea-pig, p.o. by position of the head; histamine 1 mg/kg i.v.
Protocol: K--Antihistaminic activity
This test assesses the dose which protects fifty per cent of guinea-pigs from a lethal dose of histamine.
The product is administered thirty minutes before the intravenous injection of histamine hydrochloride (1 mg/kg).
The 50% effective dose is calculated from the results obtained.

[10] = test system: rats; assay: Determination of the minimal lethal dose (MLD) in rats; type: in vivo, rat; details: male rats, doses 75 and 150 mg/kg
Protocol: B. Determination of the minimal lethal dose (MLD) in rats
The derivatives studied were administered intraperitoneally to two groups made up of 5 male rats.
The following doses were used: 75 and 150 mg/kg.

[11] = test system: anaphylactic shock; assay: Test for assessing the dose which protects 50% of guinea-pigs from anaphylactic shock; type: in vivo; details: Cavia porcellus, po; guinea-pig, p.o., 45 min before horse serum i.v.; read-out: ED50 protecting 50% of guinea-pigs from anaphylactic shock
Protocol: L--Test for assessing the dose which protects 50% of guinea-pigs from anaphylactic shock
This test was carried out according to the following protocol:
Intraperitoneal administration to guinea-pigs of 2 ml of 20% horse serum in physiological solution for three days: D1, D3 and D5.
Trigger action: on D15, oral administration of the test product 45 minutes before the intravenous injection of 0.5 ml of pure horse serum.

[12] = ip, i.p., first value under bronchospasm, read-out: Bronchospasm (guinea-pig) (ED50), i.p.
[13] = po, second value under bronchospasm, p.o. by position, read-out: Bronchospasm (guinea-pig) (ED50), second value
[14] = read-out: Peripheral analgesic activity (mouse) (ED50)

Structure (SMILES) | Motor activity, significant decrease at [1] [mg/kg] | ED50 [2] [mg/kg] | ED50 [3] [mg/kg] | ED50 [4] [mg/kg] | ED50 ([5]; mice, i.p., comparative test, read-out: Peripheral analgesic activity ED50) [mg/kg] | LD50 ([6]; ip, read-out: LD50 (i.p.)) [mg/kg] | "In vitro" test (isolated ileum) (ED50) [7] [µg] | ED50 [8, 12] [mg/kg] | ED50 [8, 13] [mg/kg] | ED50 [9] [mg/kg] | ED50 [5, 14] [mg/kg] | LD50 ([6]; po, read-out: LD50 (p.o.)) [mg/kg] | MLD (i.p.) [10] [mg/kg] | ED50 [11] [mg/kg]
CC(C)(C)c1ccc(C(O)CCCN2CCC(C(O)(c3ccccc3)c3ccccc3)CC2)cc1 (stereo not shown) [Terfenadine] | 25 | 37 | 31 | 25 | 3.1 |  |  |  |  |  |  |  |  | 
CCOC(=O)C1CCN(CCOC(c2ccccc2)c2ccccc2)CC1 [Example 4, fumarate of 4-carbethoxy-1-benzhydryloxyethylpiperidine] |  |  |  |  |  | 456 | 5 | 0.46 | 0.49 | 0.334 |  |  |  | 
CCOC(=O)C=C1CCN(CCOC(c2ccccc2)c2ccccc2)CC1 [Example 2, ethyl 1-(benzhydryloxyethyl)piperidin-4-ylideneacetate] |  |  |  |  |  | 300 | > 10 | 0.65 | 0.21 | 0.25 | 1.9 |  |  | 
CCOC(=O)CC1CCN(CCOC(c2ccccc2)c2ccccc2)CC1 [Example 3, maleate of ethyl 1-(benzhydryloxyethyl)piperidino-4-acetate] |  |  |  |  |  | 160 | 8.0 | 0.097 | 0.223 | 0.061 | 1.9 | 585 | 75 | 0.829
